In general, IC50 refers to the concentration that inhibits the measured activity by half.

The test system of assay [1] is synthesis of LTB4 in human whole blood. Briefly: human whole blood LTB4 production inhibition assay. The format is cell-based. Conditions: Homo sapiens, heparinized human whole blood, calcimycin 20 μM; read-out: hWB LTB4 IC50. The gist of the method:
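Heparinized human whole blood was preincubated with compound for 15 min at 37° C, then stimulated with calcimycin (20 μM final, in PBS pH 7.4) for a further 30 min at 37° C. Plasma LTB4 was quantified by antibody-based homogeneous time-resolved fluorescence.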

Assay [2] concerns the target T1, recombinant human FLAP protein (Homo sapiens, UniProt P20292).
T1 construct: made in house; host or cells: Sf9 insect cells (100,000 x g membrane fraction)
T1 sequence (P20292 1-161): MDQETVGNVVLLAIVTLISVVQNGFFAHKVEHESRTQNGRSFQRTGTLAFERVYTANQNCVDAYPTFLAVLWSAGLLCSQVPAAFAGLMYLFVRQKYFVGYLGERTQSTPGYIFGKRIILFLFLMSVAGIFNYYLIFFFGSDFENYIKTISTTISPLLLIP
Briefly: FLAP binding assay (Scintillation Proximity Assay, displacement of [125I]L-691,831). Conditions: recombinant human FLAP membranes, [125I]L-691,831 probe; read-out: FLAP SPA IC50. An outline of the steps:
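Membranes came from Sf9 insect cells expressing recombinant human FLAP, collected as the 100,000×g pellet in Tris pH 7.5/MgCl2/EDTA buffer. 5 μg membrane protein was coupled to WGA SPA beads for 1 h.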

Turning to `Nc1ncc(-c2ccc(C3(c4noc(-c5nc[nH]n5)n4)CCC3)cc2)cn1` [Example 156, 5-(4-{1-[5-(2H-1,2,4-Triazol-3-yl)-1,2,4-oxadiazol-3-yl]-cyclobutyl}-phenyl)-pyrimidin-2-ylamine], the 50% inhibitory concentration (IC50) in assay [1] is > 5000 nM; in assay [2] it was 13 nM.

With `Cc1cc(-c2nc(C3(c4ccc(-c5cnc(N)nc5)cc4)CCC3)no2)on1` [Example 157], the 50% inhibitory concentration (IC50) came to 690 nM in assay [1] and 4.1 nM in assay [2].

For the compound `Nc1ncc(-c2ccc(C3(c4noc(-c5cnccn5)n4)CCC3)cc2)cn1` [Example 158, 5-{4-[1-(5-Pyrazin-2-yl-1,2,4-oxadiazol-3-yl)-cyclobutyl]-phenyl}-pyrimidin-2-ylamine], the figures for the IC50 in assay [1] and in assay [2] were 360 nM and 5.7 nM, respectively.

Regarding `Nc1ncc(-c2ccc(C3(c4noc(-c5cncnc5)n4)CCC3)cc2)cn1` [Example 159, 5-{4-[1-(5-Pyrimidin-5-yl-1,2,4-oxadiazol-3-yl)-cyclobutyl]-phenyl}-pyrimidin-2-ylamine], the concentration for half-maximal inhibition (IC50) in assay [1] amounted to 340 nM; in assay [2] it was 6 nM.

Turning to `Nc1ncc(-c2ccc(C3(c4noc(-c5ccnnc5)n4)CCC3)cc2)cn1` [Example 160, 5-{4-[1-(5-Pyridazin-4-yl-1,2,4-oxadiazol-3-yl)-cyclobutyl]-phenyl}-pyrimidin-2-ylamine], the half-maximal inhibitory concentration (IC50) was found to be 240 nM in assay [1] and 6.2 nM in assay [2].

Turning to `Cc1cc(-c2nc(C3(c4ccc(-c5cnc(N)nc5)cc4)CCC3)no2)n(C)n1` [Example 161, 5-(4-{1-[5-(2,5-Dimethyl-2H-pyrazol-3-yl)-1,2,4-oxadiazol-3-yl]-cyclobutyl}-phenyl)-pyrimidin-2-ylamine], the IC50 in assay [1] was found to be 860 nM; in assay [2] it was 6.6 nM.

As to `CCn1nc(C)cc1-c1nc(C2(c3ccc(-c4cnc(N)nc4)cc3)CCC2)no1` [Example 162, 5-(4-{1-[5-(2-Ethyl-5-methyl-2H-pyrazol-3-yl)-1,2,4-oxadiazol-3-yl]-cyclobutyl}-phenyl)-pyrimidin-2-ylamine], the half-maximal inhibitory concentration (IC50) in assay [1] came to 1000 nM; in assay [2], 6.4 nM.

Regarding `Cc1nocc1-c1nc(C2(c3ccc(-c4cnc(N)nc4)cc3)CCC2)no1` [Example 163, 5-(4-{1-[5-(3-Methyl-isoxazol-4-yl)-1,2,4-oxadiazol-3-yl]-cyclobutyl}-phenyl)-pyrimidin-2-ylamine], the IC50 stood at 450 nM in assay [1] and 4 nM in assay [2].

Consider `Cc1noc(C)c1-c1nc(C2(c3ccc(-c4cnc(N)nc4)cc3)CCC2)no1` [Example 164, 5-(4-{1-[5-(3,5-Dimethyl-isoxazol-4-yl)-1,2,4-oxadiazol-3-yl]-cyclobutyl}-phenyl)-pyrimidin-2-ylamine], for which the IC50 is 570 nM in assay [1] and 5.5 nM in assay [2].

For `Cc1ncc(-c2nc(C3(c4ccc(-c5cnc(N)nc5)cc4)CCC3)no2)cn1` [Example 165, 5-(4-{1-[5-(2-Methyl-pyrimidin-5-yl)-1,2,4-oxadiazol-3-yl]-cyclobutyl}-phenyl)-pyrimidin-2-ylamine], the 50% inhibitory concentration (IC50) was 450 nM in assay [1] and 6 nM in assay [2].

On to `Cc1ncccc1-c1nc(C2(c3ccc(-c4cnc(N)nc4)cc3)CCC2)no1` [Example 167, 5-(4-{1-[5-(2-Methyl-pyridin-3-yl)-1,2,4-oxadiazol-3-yl]-cyclobutyl}-phenyl)-pyrimidin-2-ylamine], for which the concentration for half-maximal inhibition (IC50) in assay [1] was found to be 660 nM; in assay [2], 5.1 nM.

Regarding `COc1ccncc1-c1nc(C2(c3ccc(-c4cnc(N)nc4)cc3)CCC2)no1` [Example 168, 5-(4-{1-[5-(4-Methoxy-pyridin-3-yl)-1,2,4-oxadiazol-3-yl]-cyclobutyl}-phenyl)-pyrimidin-2-ylamine], the values for the concentration for half-maximal inhibition (IC50) in assay [1] and in assay [2] were 230 nM and 5.5 nM, respectively.

Consider `Nc1ncc(-c2ccc(C3(c4noc(-c5cccnc5Cl)n4)CCC3)cc2)cn1` [Example 169, 5-(4-{1-[5-(2-Chloro-pyridin-3-yl)-1,2,4-oxadiazol-3-yl]-cyclobutyl}-phenyl)-pyrimidin-2-ylamine], for which the IC50 worked out at 130 nM in assay [1] and 2.1 nM in assay [2].

On to `COC(=O)c1ccc(-c2nc(C3(c4ccc(-c5cnc(N)nc5)cc4)CCC3)no2)cn1` [Example 170, 5-(3-{1-[4-(2-Amino-pyrimidin-5-yl)-phenyl]-cyclobutyl}-1,2,4-oxadiazol-5-yl)-pyridine-2-carboxylic acid methyl ester], for which the IC50 in assay [1] worked out at 390 nM; in assay [2] it was 2.9 nM.

Turning to `Nc1ncc(-c2ccc(C3(c4noc(-c5ccncn5)n4)CCC3)cc2)cn1` [Example 171, 5-{4-[1-(5-Pyrimidin-4-yl-1,2,4-oxadiazol-3-yl)-cyclobutyl]-phenyl}-pyrimidin-2-ylamine], the IC50 in assay [1] is 820 nM; in assay [2], 14 nM.

In the case of `CC(C)(O)c1ccc(-c2nc(C3(c4ccc(-c5cnc(N)nc5)cc4)CCC3)no2)cn1` [Example 172], the IC50 came to 260 nM in assay [1] and 4.3 nM in assay [2].

Take `Nc1ncc(-c2ccc(C3(c4noc(-c5ccc[nH]c5=O)n4)CCC3)cc2)cn1` [Example 173, 3-(3-{1-[4-(2-amino-pyrimidin-5-yl)-phenyl]-cyclobutyl}-1,2,4-oxadiazol-5-yl)-1H-pyridin-2-one]: the results for the IC50 in assay [1] and in assay [2] were > 5000 nM and 2.9 nM, respectively.

Regarding `COc1cc(-c2nc(C3(c4ccc(-c5cnc(N)nc5)cc4)CCC3)no2)ccn1` [Example 174, 5-(4-{1-[5-(2-Methoxy-pyridin-4-yl)-1,2,4-oxadiazol-3-yl]-cyclobutyl}-phenyl)-pyrimidin-2-ylamine], the values for the IC50 in assay [1] and in assay [2] were 510 nM and 5.3 nM, respectively.

On to `Nc1ncc(-c2ccc(C3(c4noc(-c5cn[nH]c5)n4)CCC3)cc2)cn1` [Example 175, 5-(4-{1-[5-(1H-Pyrazol-4-yl)-1,2,4-oxadiazol-3-yl]-cyclobutyl}-phenyl)-pyrimidin-2-ylamine], for which the IC50 in assay [1] was 110 nM; in assay [2] it was 2.3 nM.

Regarding `Cn1cncc1-c1nc(C2(c3ccc(-c4cnc(N)nc4)cc3)CCC2)no1` [Example 176, 5-(4-{1-[5-(3-Methyl-3H-imidazol-4-yl)-1,2,4-oxadiazol-3-yl]-cyclobutyl}-phenyl)-pyrimidin-2-ylamine], the IC50 is 410 nM in assay [1] and 5.6 nM in assay [2].

For the compound `NC(=O)c1nc(C2(c3ccc(-c4cnc(N)nc4)cc3)CCC2)no1` [Example 177, 3-{1-[4-(2-Amino-pyrimidin-5-yl)-phenyl]-cyclobutyl}-1,2,4-oxadiazole-5-carboxylic acid amide], the concentration for half-maximal inhibition (IC50) in assay [1] was 1300 nM; in assay [2], 98 nM.

With `Cc1ccc(C(=O)Nc2nc(C3(c4ccc(-c5cnc(N)nc5)cc4)CCC3)no2)cn1` [Example 178, N-(3-{1-[4-(2-Amino-pyrimidin-5-yl)-phenyl]-cyclobutyl}-1,2,4-oxadiazol-5-yl)-6-methyl-nicotinamide], the figures for the concentration for half-maximal inhibition (IC50) in assay [1] and in assay [2] were > 5000 nM and 61 nM, respectively.

In the case of `Nc1ncc(-c2ccc(C3(c4noc(-c5cccnc5N5CCOCC5)n4)CCC3)cc2)cn1` [Example 179, 5-(4-{1-[5-(2-Morpholin-4-yl-pyridin-3-yl)-1,2,4-oxadiazol-3-yl]-cyclobutyl}-phenyl)-pyrimidin-2-ylamine], the IC50 was 1400 nM in assay [1] and 12 nM in assay [2].

As to `Nc1ncc(-c2ccc(C3(c4noc(-c5ccc(NCCO)nc5)n4)CCC3)cc2)cn1` [Example 180, 2-[5-(3-{1-[4-(2-Amino-pyrimidin-5-yl)-phenyl]-cyclobutyl}-1,2,4-oxadiazol-5-yl)-pyridin-2-ylamino]-ethanol], the 50% inhibitory concentration (IC50) in assay [1] was 73 nM; in assay [2], 0.85 nM.

In the case of `CN(CCO)c1ccc(-c2nc(C3(c4ccc(-c5cnc(N)nc5)cc4)CCC3)no2)cn1` [Example 181, 2-{[5-(3-{1-[4-(2-Amino-pyrimidin-5-yl)-phenyl]-cyclobutyl}-1,2,4-oxadiazol-5-yl)-pyridin-2-yl]-methyl-amino}-ethanol], the IC50 in assay [1] turned out to be 62 nM; in assay [2], 1.2 nM.

`COCCNc1ccc(-c2nc(C3(c4ccc(-c5cnc(N)nc5)cc4)CCC3)no2)cn1` [Example 182, 5-[4-(1-{5-[6-(2-Methoxy-ethylamino)-pyridin-3-yl]-1,2,4-oxadiazol-3-yl}-cyclobutyl)-phenyl]-pyrimidin-2-ylamine]: the 50% inhibitory concentration (IC50) in assay [1] was found to be 40 nM; in assay [2] it was 1.1 nM.

As to `CCNc1ccc(-c2nc(C3(c4ccc(-c5cnc(N)nc5)cc4)CCC3)no2)cn1` [Example 183, 5-(4-{1-[5-(6-Ethylamino-pyridin-3-yl)-1,2,4-oxadiazol-3-yl]-cyclobutyl}-phenyl)-pyrimidin-2-ylamine], the half-inhibitory concentration (IC50) in assay [1] came to 53 nM; in assay [2], 0.88 nM.

Take `Nc1ncc(-c2ccc(C3(c4noc(-c5cc[nH]c(=O)c5)n4)CCC3)cc2)cn1` [Example 184, 4-(3-{1-[4-(2-Amino-pyrimidin-5-yl)-phenyl]-cyclobutyl}-1,2,4-oxadiazol-5-yl)-1H-pyridin-2-one]: the IC50 in assay [1] was found to be 140 nM; in assay [2] it was 2.6 nM.

As for `Cn1cc(-c2nc(C3(c4ccc(-c5cnc(N)nc5)cc4)CCC3)no2)cnc1=O` [Example 185, 5-(3-{1-[4-(2-Amino-pyrimidin-5-yl)-phenyl]-cyclobutyl}-1,2,4-oxadiazol-5-yl)-1-methyl-1H-pyrimidin-2-one], the concentration for half-maximal inhibition (IC50) in assay [1] was determined as 230 nM; in assay [2] it was 7.3 nM.

`N#Cc1ccc(-c2nc(C3(c4ccc(-c5cnc(N)nc5)cc4)CCC3)no2)nc1` [Example 186, 6-(3-{1-[4-(2-Amino-pyrimidin-5-yl)-phenyl]-cyclobutyl}-1,2,4-oxadiazol-5-yl)-nicotinonitrile]: the values for the IC50 in assay [1] and in assay [2] were 710 nM and 12 nM, respectively.

The record behind these values is patent US8580829B2 (Boehringer Ingelheim International GmbH, priority 2010, dated 2013).
